Measurements from article PMC4581874 (PLoS ONE, 2015).

Columns and labels:
FGFR3 = molecular target: T1, FGFR3 (Homo sapiens, UniProt P22607); test: In vitro kinase assay, FGFR3; type: biochemical
T1 construct: purchased Millipore UK Ltd., Dundee, UK (now Eurofins Scientific); KinaseProfiler / IC50 Profiler service
Protocol: (§1) All kinase assays were carried out using KinaseProfiler^TM and IC50 Profiler^TM (Millipore UK Ltd., Dundee, UK. Now Eurofins Scientific, Dundee, UK). All IC50 data were presented as the mean values. The Curves obtained to determine IC50 values were shown in Supporting Information (S1 Fig).

VEGFR-1 = molecular target: T2, VEGFR-1 (Homo sapiens, UniProt P17948); test: In vitro kinase assay, VEGFR-1; type: biochemical
T2 construct: purchased Millipore UK Ltd., Dundee, UK (now Eurofins Scientific); KinaseProfiler / IC50 Profiler service
T2 sequence (P17948 27-1338): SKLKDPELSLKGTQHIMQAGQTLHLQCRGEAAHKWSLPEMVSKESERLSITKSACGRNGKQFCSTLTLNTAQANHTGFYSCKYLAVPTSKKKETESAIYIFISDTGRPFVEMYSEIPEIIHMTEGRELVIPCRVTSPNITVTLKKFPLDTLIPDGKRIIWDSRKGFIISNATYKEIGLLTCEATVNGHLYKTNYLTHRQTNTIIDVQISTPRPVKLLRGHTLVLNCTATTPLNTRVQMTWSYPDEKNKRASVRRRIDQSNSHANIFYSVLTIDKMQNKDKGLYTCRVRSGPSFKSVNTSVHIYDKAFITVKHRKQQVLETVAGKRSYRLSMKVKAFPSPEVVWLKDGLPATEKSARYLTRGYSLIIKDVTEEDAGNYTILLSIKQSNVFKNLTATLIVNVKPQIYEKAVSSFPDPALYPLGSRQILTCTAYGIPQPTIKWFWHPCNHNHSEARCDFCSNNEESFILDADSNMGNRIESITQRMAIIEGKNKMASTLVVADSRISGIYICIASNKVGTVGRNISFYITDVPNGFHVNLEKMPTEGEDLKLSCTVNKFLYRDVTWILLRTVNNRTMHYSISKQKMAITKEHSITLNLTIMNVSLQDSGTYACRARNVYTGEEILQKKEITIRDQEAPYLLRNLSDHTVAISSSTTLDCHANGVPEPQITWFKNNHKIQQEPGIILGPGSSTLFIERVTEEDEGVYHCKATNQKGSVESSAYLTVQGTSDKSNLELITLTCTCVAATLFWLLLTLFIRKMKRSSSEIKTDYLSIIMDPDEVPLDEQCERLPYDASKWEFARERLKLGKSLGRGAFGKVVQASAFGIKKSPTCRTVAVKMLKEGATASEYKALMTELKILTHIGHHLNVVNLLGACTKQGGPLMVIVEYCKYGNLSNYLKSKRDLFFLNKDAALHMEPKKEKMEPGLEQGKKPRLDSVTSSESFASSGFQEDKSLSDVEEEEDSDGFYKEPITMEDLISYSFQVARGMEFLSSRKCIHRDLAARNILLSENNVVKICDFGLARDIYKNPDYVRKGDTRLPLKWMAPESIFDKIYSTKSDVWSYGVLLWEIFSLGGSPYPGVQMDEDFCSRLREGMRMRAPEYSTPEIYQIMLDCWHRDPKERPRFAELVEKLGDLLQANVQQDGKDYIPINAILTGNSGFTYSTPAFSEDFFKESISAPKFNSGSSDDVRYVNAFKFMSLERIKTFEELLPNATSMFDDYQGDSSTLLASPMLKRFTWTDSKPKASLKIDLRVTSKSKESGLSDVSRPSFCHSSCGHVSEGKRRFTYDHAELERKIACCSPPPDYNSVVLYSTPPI
Protocol: as §1

VEGFR-3 = molecular target: T3, VEGFR-3 (Homo sapiens, UniProt P35916); test: In vitro kinase assay, VEGFR-3; type: biochemical
T3 construct: purchased Millipore UK Ltd., Dundee, UK (now Eurofins Scientific); KinaseProfiler / IC50 Profiler service
T3 sequence (P35916 25-1363): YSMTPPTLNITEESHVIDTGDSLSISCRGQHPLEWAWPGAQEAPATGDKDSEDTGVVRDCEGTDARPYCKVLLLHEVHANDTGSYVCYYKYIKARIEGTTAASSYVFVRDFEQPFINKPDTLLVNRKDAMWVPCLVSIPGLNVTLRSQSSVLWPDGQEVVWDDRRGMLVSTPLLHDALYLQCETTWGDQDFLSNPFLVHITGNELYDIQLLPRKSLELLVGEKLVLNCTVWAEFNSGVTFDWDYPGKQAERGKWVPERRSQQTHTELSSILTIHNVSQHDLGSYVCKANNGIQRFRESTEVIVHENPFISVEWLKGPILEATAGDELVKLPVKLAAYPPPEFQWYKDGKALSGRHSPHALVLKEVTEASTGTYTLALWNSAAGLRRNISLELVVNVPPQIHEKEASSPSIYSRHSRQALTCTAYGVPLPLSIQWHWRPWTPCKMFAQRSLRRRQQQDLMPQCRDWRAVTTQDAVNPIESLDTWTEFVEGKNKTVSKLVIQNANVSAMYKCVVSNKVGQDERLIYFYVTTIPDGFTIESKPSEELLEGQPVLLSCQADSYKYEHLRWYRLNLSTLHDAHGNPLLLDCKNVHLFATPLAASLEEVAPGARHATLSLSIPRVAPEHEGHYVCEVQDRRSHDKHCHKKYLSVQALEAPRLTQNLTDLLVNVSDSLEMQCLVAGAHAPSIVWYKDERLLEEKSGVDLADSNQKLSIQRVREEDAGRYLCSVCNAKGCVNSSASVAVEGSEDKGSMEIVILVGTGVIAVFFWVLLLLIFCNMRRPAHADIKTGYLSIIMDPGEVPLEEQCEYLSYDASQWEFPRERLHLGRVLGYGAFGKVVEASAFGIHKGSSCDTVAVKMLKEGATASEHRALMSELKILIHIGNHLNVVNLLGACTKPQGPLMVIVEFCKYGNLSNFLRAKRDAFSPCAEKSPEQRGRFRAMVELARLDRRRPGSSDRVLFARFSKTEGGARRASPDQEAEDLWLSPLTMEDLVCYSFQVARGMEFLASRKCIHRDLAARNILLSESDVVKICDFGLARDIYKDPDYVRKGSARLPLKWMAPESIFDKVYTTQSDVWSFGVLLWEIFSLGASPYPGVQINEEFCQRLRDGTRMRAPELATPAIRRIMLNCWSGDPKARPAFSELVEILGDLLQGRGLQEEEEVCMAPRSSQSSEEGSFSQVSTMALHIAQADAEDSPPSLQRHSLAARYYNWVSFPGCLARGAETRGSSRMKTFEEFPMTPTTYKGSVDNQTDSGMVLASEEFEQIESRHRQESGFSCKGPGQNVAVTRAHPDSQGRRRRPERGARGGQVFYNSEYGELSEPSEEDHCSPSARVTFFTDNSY
Protocol: as §1

CDK1/cyclin B (h) = molecular target: T4, CDK1/cyclin B (h) (Homo sapiens, UniProt P06493); test: Kinase profile, CDK1/cyclin B; type: biochemical; details: mean ± S.D.
T4 construct: purchased Millipore (now Eurofins) KinaseProfiler / IC50 Profiler
T4 sequence (P06493 whole entry): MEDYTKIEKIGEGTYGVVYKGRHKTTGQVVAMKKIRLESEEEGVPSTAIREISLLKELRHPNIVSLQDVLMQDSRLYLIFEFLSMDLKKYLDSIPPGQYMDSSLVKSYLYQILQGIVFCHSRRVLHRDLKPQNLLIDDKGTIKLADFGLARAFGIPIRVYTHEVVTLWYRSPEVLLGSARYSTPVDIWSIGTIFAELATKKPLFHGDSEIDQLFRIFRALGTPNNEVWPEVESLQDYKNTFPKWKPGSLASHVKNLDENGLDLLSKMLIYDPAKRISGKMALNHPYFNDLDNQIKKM
T4 sequence (P14635 whole entry partner): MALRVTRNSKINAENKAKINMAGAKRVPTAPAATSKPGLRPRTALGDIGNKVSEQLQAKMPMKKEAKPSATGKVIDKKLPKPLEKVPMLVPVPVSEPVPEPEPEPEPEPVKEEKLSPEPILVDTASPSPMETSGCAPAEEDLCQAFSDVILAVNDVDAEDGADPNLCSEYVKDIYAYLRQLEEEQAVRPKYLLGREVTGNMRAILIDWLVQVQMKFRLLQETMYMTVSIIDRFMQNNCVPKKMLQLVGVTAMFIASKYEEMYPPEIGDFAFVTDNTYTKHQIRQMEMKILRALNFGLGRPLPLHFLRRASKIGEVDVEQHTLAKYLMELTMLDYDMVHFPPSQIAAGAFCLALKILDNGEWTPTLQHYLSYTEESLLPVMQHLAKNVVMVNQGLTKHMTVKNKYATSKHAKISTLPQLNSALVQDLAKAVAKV
Protocol: as §1

CDK2/cyclin A (h) = molecular target: T5, CDK2/cyclin A (h) (Homo sapiens, UniProt P24941); test: Kinase profile, CDK2/cyclin A; type: biochemical; details: mean ± S.D.
T5 construct: purchased Millipore (now Eurofins) KinaseProfiler / IC50 Profiler
Protocol: as §1

GSK3β (h) = molecular target: T6, GSK3β (h) (Homo sapiens, UniProt P49841); test: Kinase profile, GSK3β; type: biochemical; details: mean ± S.D.
T6 construct: purchased Millipore (now Eurofins) KinaseProfiler / IC50 Profiler
Protocol: as §1

MAPK2 (h) = molecular target: T7, MAPK2 (h) (Homo sapiens, UniProt P28482); test: Kinase profile, MAPK2; type: biochemical; details: mean ± S.D.
T7 construct: purchased Millipore (now Eurofins) KinaseProfiler / IC50 Profiler
T7 sequence (P28482 whole entry): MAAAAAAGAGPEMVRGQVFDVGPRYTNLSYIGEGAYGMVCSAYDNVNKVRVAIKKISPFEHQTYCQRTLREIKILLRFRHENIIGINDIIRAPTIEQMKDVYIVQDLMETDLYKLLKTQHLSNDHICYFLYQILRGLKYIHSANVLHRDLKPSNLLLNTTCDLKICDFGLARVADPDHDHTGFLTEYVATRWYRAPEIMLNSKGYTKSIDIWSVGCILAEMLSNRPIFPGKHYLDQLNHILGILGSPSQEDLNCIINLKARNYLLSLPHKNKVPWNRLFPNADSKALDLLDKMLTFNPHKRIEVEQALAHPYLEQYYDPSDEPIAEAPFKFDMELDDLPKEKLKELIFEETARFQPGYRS
Protocol: as §1

p70S6K (h) = molecular target: T8, p70S6K (h) (Homo sapiens, UniProt P23443); test: Kinase profile, p70S6K; type: biochemical; details: mean ± S.D.
T8 construct: purchased Millipore (now Eurofins) KinaseProfiler / IC50 Profiler
Protocol: as §1

PKBβ (h) = molecular target: T9, PKBβ (h) (Homo sapiens, UniProt P31751); test: Kinase profile, PKBβ; type: biochemical; details: mean ± S.D.
T9 construct: purchased Millipore (now Eurofins) KinaseProfiler / IC50 Profiler
T9 sequence (P31751 whole entry): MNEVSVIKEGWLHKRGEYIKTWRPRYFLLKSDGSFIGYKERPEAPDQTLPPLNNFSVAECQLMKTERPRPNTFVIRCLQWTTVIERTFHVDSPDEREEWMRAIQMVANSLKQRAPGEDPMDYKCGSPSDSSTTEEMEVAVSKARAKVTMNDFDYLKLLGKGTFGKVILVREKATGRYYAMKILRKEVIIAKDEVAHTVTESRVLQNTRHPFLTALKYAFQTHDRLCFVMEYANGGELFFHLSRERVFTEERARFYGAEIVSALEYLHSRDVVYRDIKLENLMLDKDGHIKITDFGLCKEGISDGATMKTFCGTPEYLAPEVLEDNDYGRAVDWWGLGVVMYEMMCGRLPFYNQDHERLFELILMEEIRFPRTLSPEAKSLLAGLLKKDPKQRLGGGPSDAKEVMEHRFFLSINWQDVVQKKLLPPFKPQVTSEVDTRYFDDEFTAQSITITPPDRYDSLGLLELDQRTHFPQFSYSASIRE
Protocol: as §1

PKCβII (h) = molecular target: T10, PKCβII (h) (Homo sapiens, UniProt P05771); test: Kinase profile, PKCβII; type: biochemical; details: mean ± S.D.
T10 construct: purchased Millipore (now Eurofins) KinaseProfiler / IC50 Profiler
Protocol: as §1

PKCγ (h) = molecular target: T11, PKCγ (h) (Homo sapiens, UniProt P05129); test: Kinase profile, PKCγ; type: biochemical; details: mean ± S.D.
T11 construct: purchased Millipore (now Eurofins) KinaseProfiler / IC50 Profiler
Protocol: as §1

PKCδ (h) = molecular target: T12, PKCδ (h) (Homo sapiens, UniProt Q05655); test: Kinase profile, PKCδ; type: biochemical; details: mean ± S.D.
T12 construct: purchased Millipore (now Eurofins) KinaseProfiler / IC50 Profiler
Protocol: as §1

PKCε (h) = molecular target: T13, PKCε (h) (Homo sapiens, UniProt Q02156); test: Kinase profile, PKCε; type: biochemical; details: mean ± S.D.
T13 construct: purchased Millipore (now Eurofins) KinaseProfiler / IC50 Profiler
Protocol: as §1

HUVECs = test: HUVEC viability assay (cytotoxicity); type: cell-based, human; details: 24 hours
Protocol: HCC827 cells were purchased from the American Type Culture Collection (ATCC, Manassas, VA, USA). Cells were grown in RPMI 1640 (Welgene Inc., Daegu, Republic of Korea) supplemented with 10% fetal bovine serum (FBS) (Welgene Inc.) and 1% penicillin-streptomycin (Gibco®, Life Technologies, Carlsbad, CA, USA) in a humidified 5% CO2 atmosphere at 37°C. Human umbilical vein endothelial cells (HUVECs, ScienCell Research Laboratories, Carlsbad, CA, USA) were cultured in endothelial growth medium-2 (EGM-2; Lonza, Walkersville, MD, USA) from passages 3 to 6.
For the HUVEC viability assay, HUVECs were treated with phosphate-buffered saline (PBS) or the indicated concentrations of VEGF inhibitors in EGM-2 medium for 24 hours. After the cells were washed with PBS, they were counted using an inverted light microscope (Nikon Eclipse Ti-U; Nikon Corp., Tokyo, Japan) in 5 random fields from each well.

T1 sequence (P22607 23-806): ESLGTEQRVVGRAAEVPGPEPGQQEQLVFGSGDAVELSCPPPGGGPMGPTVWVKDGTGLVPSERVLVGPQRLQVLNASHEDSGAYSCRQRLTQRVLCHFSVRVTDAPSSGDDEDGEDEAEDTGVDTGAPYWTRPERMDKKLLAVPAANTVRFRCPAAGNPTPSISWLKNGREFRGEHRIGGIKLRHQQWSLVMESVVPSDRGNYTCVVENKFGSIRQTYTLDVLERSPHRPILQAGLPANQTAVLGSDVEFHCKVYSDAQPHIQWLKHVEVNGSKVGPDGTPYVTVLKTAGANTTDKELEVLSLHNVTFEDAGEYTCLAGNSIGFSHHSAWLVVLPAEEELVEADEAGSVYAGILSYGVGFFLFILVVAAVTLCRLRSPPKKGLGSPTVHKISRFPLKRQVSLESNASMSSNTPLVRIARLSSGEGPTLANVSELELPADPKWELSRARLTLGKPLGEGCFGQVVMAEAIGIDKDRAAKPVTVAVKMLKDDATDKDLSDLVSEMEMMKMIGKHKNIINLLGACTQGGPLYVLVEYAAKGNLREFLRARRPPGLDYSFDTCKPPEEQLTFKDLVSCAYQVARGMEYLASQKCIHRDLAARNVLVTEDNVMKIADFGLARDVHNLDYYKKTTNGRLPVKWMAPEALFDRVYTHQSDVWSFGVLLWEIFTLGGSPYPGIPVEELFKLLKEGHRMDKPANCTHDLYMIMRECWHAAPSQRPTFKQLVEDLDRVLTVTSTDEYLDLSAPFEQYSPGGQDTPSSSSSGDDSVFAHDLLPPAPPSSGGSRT

Compound `Cc1ccc(Nc2nccc(N(C)c3ccc4[nH]ccc4c3)n2)cc1S(N)(=O)=O` [MKP101] has an inhibition at 1 µM (FGFR3; 1 μM, mean ± S.D., read-out: % inhibition at 1 μM, FGFR3 (h)) of 96%, an IC50 (FGFR3; in vitro kinase assay) of 43 nM and an inhibition at 1 µM (VEGFR-1; 1 μM, mean ± S.D., read-out: % inhibition at 1 μM, VEGFR-1 (h)) of 99%. The IC50 (VEGFR-1; in vitro kinase assay) was 3 nM, the inhibition at 1 µM (VEGFR-3; 1 μM, mean ± S.D., read-out: % inhibition at 1 μM, VEGFR-3 (h)) was 98% and the IC50 (VEGFR-3; in vitro kinase assay) was 2 nM. The inhibition at 1 µM (CDK1/cyclin B (h)) was 18 ± 8%, the inhibition at 1 µM (CDK2/cyclin A (h)) was 12 ± 8% and the inhibition at 1 µM (GSK3β (h)) was 18 ± 4%. The inhibition at 1 µM (MAPK2 (h)) was 0%, the inhibition at 1 µM (p70S6K (h)) was 20 ± 3% and the inhibition at 1 µM (PKBβ (h)) was 14 ± 4%. The inhibition at 1 µM (PKCβII (h)) was 8 ± 3%, the inhibition at 1 µM (PKCγ (h)) was 12 ± 2% and the inhibition at 1 µM (PKCδ (h)) was 0%. The inhibition at 1 µM (PKCε (h)) was 2 ± 3%, the “Cytotoxicity in HUVECs” value (HUVECs; 1 μg/mL) was “No cytotoxicity was observed” and the “Cytotoxicity in HUVECs” value (HUVECs; 5 and 10 μg/mL) was “significant endothelial cytotoxicity”.
